Experimental data published in patent US5688767A, “Treatment of endotoxin-associated disorders with cationic peptides” (priority 1996, dated 1997).
Converted amounts (≈) assume the structure as drawn.

How the values were obtained:
[1] = test system: LPS-induced TNF in RAW 264.7 macrophage cells; assay: Inhibition of LPS-mediated TNF induction in RAW 264.7 macrophages (L929 cytotoxicity readout); type: cell-based, murine; conditions: for Unit of TNF induced / Unit of TNF induced (% of control): 100 ng purified E. coli 0111:B4 LPS, 20 μg of peptide or polymyxin B; for block of induction of TNF: 20 μg/ml, E. coli 0111:B4 and E. coli Bort LPS; for block of LPS induction of TNF: added up to 60 minutes after LPS
Method: The effect of CEME and CEMA peptides on LPS-induced TNF in macrophages was examined. RAW 264.7 macrophage cells were grown by seeding 10^6 cells into a 162 cm^2 cell culture flask and incubated at 37° C., 5% CO2 for 1 week. RAW cell media (Dulbecco's Modified Eagle Medium with Hepes buffer 450 ml; 2.4 mM L-glutamine 3 ml (400 mM); Pen/Strep 3 ml (10^4 U/ml of Pen, 1 mg/ml strep); and 10% heat inactivated fetal bovine serum (FBS) 50 ml) was then completely removed from flasks. 10 mls of cell dissociation solution (Sigma) was added to each flask and incubated at 37° C. for 10 minutes. Cells were removed from flasks, diluted in RAW cell media and centrifuged for 6 minutes. The cell pellet was resuspended in 5 ml of media/flask used. […] cell suspension was removed and added to 400 μl of trypan blue and cells were counted using a hemocytometer. The cell suspension was diluted to 1×10^6cells/ml and 1 ml of suspension was added per well of a 24 well plate. The 24 well plates were incubated at 37° C., 5% CO2 overnight for use in the assay.
After an overnight incubation, the media was aspirated from all the wells. 100 μl of Lipopolysaccharide (LPS) was added at 100 ng/100 μl. CEME or CEMA was added at the desired concentration/100 μl to specified wells. […] The plates were then incubated for six hours at 37° C., 5% CO2. The supernatant was then removed from the wells and stored overnight at 4° C. For those wells in which whole bacteria were added directly to the wells, the supernatant was centrifuged in 0.2 μm filter eppendorf tubes for 5 minutes.
The supernatants were then used in cell cytotoxic L929 assay. The samples were transferred to 96 well plates. 50 μl of TNF media was added to all the wells in all the plates except to those wells in the first row. 10 μl of murine TNF standard (20 ng/ml) and 90 μl of TNF media was added in duplicate to the plate and diluted 1:2 down the plate to the second to last row. Test samples (75 μl), comprising of the supernatants from the RAW cell assays, were added to separate rows in duplicate and diluted 1:3 to the second to last rows.
TNF-sensitive L929 mouse fibroblast cells were grown by seeding 10^6 cells into a 162 cm^2 cell culture flask and left to grow for 1 week. L929 cells were removed from the flask with 10 mls of trypsin-EDTA/flask and incubated 3-5 minutes. Cell suspension was diluted and centrifuged for 6 minutes. The pellet was resuspended in 5 mls of fresh L929 media/flask and counted (same as RAW cells). Cell suspension was diluted to 10^6 cells/ml. 100 μl was used to inoculate each well of the 96 well plates with the supernatants. (L929 Growth Media was the same as RAW cell media except instead of FBS, 50 mls of 10% heat inactivated horse serum was utilized; TNF Assay Media was the same as RAW cell media except 4 μg/ml Actinomycin D was added.)
The plates were incubated at 37° C. at 5% CO2 for 2 days. The media was then aspirated and replaced with 100 μl of the dye MTT (0.5 mg/ml) in modified Eagle Medium without phenol red. The plates were then incubated at 37° C. at 5% CO2 for 3 hours. The dye was then removed and replaced with 100 μl of absolute ethanol. The plates were left at room temperature for 10-15 minutes to dissolve the formazan dye crystals.
The plates were read at 570 nm in a ELISA plate reader with 690 nm reference filter. One unit of TNF activity is defined as the amount required to kill 50% of the L929 cells. The TNF level in Units per ml therefore was the reciprocal of the dilution which led to a 50% killing of L929 cells. […]
The murine cell line RAW 264.7 was obtained from ATCC, (Rockville, Md.), and maintained and passaged as described previously (Kelly, et al., supra). TNF induction experiments with LPS were performed as described by Kelly, et al. (supra) Briefly, Dulbecco's modified Eagle medium was aspirated from RAW 264.7 cell grown overnight in 24 well tissue culture plates after seeding with 10^6 cell per ml per well and replaced with fresh medium. […]

P. AERUGINOSA H309 = assay: microbe, parasite or virus in culture; type: cell-based, Pseudomonas aeruginosa
Method: Briefly, cells were grown overnight at 37° C. in LB-S (Luria broth without any salt supplement) and diluted one in 10,000 in the same medium to give concentrations of about 10^4 to 10^5 CFU/ml. The broth dilutions were set up in a 96 well microtiter plate by putting 200 μl of LB-S containing the initial concentration of antibiotic or compound in column 1 and 100 μl of the same medium in columns 2-12. The compounds were diluted by taking 100 μl of broth from column 1 and mixing it with column 2, resulting in a one in two dilution. This was continued to column 10. Finally, 10 μl of bacteria were pipetted into columns 1-11, and the plates incubated overnight at 37° C. The next day the plates were scored for growth in the wells, and the MIC determined.

[2] = test system: P. aeruginosa H309 Whole Cells; assay: DPx binding inhibition using whole cells; parameters: species or system Pseudomonas aeruginosa; conditions: DPx at 90-100% binding saturation, average of at least three trials
Method: For DPx binding inhibition assays using whole cells instead of purified LPS, H309 cells were prepared the same way as for the lysozyme lysis assay. The assay consisted of 10 μl of cells at an OD600 of 0.5, 990 μl of 5 mM HEPES pH 7.2 and 5 mM KCN, and the concentration of DPx that gave 90-100% binding saturation. […] Compounds were titrated in, and I50 values were determined as described above.

Compound	Unit of TNF induced [1] [units/ml]	Unit of TNF induced (% of control) [1] [%]	block of induction of TNF [1]	block of LPS induction of TNF [1] [%]	MIC (P. AERUGINOSA H309; +5 mM Mg^++) [µg/mL]	MIC (P. AERUGINOSA H309; +80 mM Na^+) [µg/mL]	MIC (P. AERUGINOSA H309; No addition) [µg/mL]	I50, Value in μg/ml [2] [µg/mL]	concentration of peptide that efficiently reduces LPS-induced TNF ([1]; 100 ng of E. coli 0111:B4 or E. coli Bort LPS, 6 hour) [µg/mL]	reduction of TNF induction ([1]; 2 μg/ml of peptide, E. coli 0111:B4 LPS 100 ng/ml)	blockage of TNF induction, in words ([1]; 20-50 μg/ml of peptides, E. coli 0111:B4 LPS 100 ng/ml)	TNF produced by peptide alone ([1]; CEMA (20 μg) alone, no LPS) [units/ml]	IC50 ([2]; read-out: I50, Value in μM) [µM]
polymyxin B	573 ± 4	5.8	approximately 100%	81	1	0.5	0.5	3.7 ± 1.20	–	–	–	–	–
CC[C@H](C)[C@H](NC(=O)CNC(=O)[C@@H](NC(=O)[C@H](CCCCN)NC(=O)[C@H](CCCCN)NC(=O)[C@H](Cc1ccccc1)NC(=O)[C@H](CC(C)C)NC(=O)[C@H](CCCCN)NC(=O)[C@H](Cc1c[nH]c2ccccc12)NC(=O)[C@@H](N)CCCCN)[C@@H](C)CC)C(=O)NCC(=O)N[C@@H](C)C(=O)N[C@H](C(=O)N[C@@H](CC(C)C)C(=O)N[C@@H](CCCCN)C(=O)N[C@H](C(=O)N[C@@H](CC(C)C)C(=O)N[C@H](C(=O)N[C@H](C(=O)NCC(=O)N[C@@H](CC(C)C)C(=O)N1CCC[C@H]1C(=O)N[C@@H](C)C(=O)N[C@@H](CC(C)C)C(=O)N[C@@H](CCCCN)C(=O)N[C@@H](CC(C)C)C(=O)N[C@H](C(=O)N[C@@H](CCCCN)C(=O)O)[C@@H](C)O)[C@@H](C)O)[C@@H](C)O)C(C)C)C(C)C [CEMA]	566 ± 69	5.8	approximately 100%	99	22.4 (≈ 7.31 µM)	5.6 (≈ 1.83 µM)	2.8 (≈ 0.913 µM)	1.15 ± 0.09	≤ 5	more than 50%	almost complete blockage	50 ± 3	0.37 ± 0.03
